≈ marks a conversion by molar mass, not a printed value. Calls of active or inactive are those of the source. The calls are words filed in the database; no cut-off is given here.
Key:
[1] = molecular target: T1, MAP kinase-activated protein kinase 2 (Homo sapiens, UniProt P49137); test: Inhibition of MK2 using 5TAMRA-KKLNRTLSVA-COOH as substrate incubated for 30 mins prior to substrate addition measured after 30 mins by immobilized metal ion affinity-based fluorescence polarization assay in presence of 100 uM ATP
Target sequence in this assay (P49137 whole entry): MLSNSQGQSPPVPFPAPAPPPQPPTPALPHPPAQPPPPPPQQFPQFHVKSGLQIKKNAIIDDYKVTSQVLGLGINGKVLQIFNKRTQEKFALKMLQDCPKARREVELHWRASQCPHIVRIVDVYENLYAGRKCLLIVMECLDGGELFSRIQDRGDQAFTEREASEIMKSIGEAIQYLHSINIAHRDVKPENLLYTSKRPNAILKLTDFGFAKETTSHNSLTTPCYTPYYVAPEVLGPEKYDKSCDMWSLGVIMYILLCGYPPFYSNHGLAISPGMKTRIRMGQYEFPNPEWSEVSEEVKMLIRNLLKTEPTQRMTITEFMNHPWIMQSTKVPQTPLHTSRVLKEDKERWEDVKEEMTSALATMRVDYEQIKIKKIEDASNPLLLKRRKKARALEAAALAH

[2] = molecular target: T1, MAP kinase-activated protein kinase 2; test: Inhibition of MK2 in human THP1 cells assessed as inhibition of LPS-induced HSP27 Ser78 phosphorylation incubated for 60 mins prior to LPS-induction measured after 60 mins; format: cell-based, THP-1
Target sequence in this assay (P49137 whole entry): as above

[3] = molecular target: T1, MAP kinase-activated protein kinase 2; test: Non-competitive inhibition of MK2 using 5TAMRA-KKLNRTLSVA-COOH as substrate by immobilized metal ion affinity-based fluorescence polarization assay in presence of 1 to 100 uM ATP
Target sequence in this assay (P49137 whole entry, looked up): as the sequence (P49137 whole entry) above

[4] = Clearance in rat hepatocyte assessed per million cells; format: ADME, cell-based; conditions: hepatocytes, read-out: CLH
Caco-2 = test: Permeability across human Caco2 cells; format: ADME, cell-based
[5] = Solubility of the compound in 10 mM sodium phosphate buffer at pH 7.4; format: physicochemical
[6] = Solubility of the compound in 2% DMSO at pH 7.4; format: physicochemical
[7] = Plasma protein binding in human; format: ADME, cell-free; conditions: read-out: PPB (converted)
[8] = Plasma protein binding in rat; format: ADME, cell-free; conditions: read-out: PPB (converted)

IC50 [1] [nM] | Structure (SMILES) | other results
> 10000 | Clc1ccc(-c2ccc(-c3cc(-c4ccc(N5CCNCC5)cc4)on3)o2)cc1 | 
110 | N#Cc1ccc(-c2ccc(C3=NOCCN3c3ccc(N4CCNCC4)cc3)o2)cc1 | 
> 10000 | FC1(F)CCN(c2ccc(N3C(c4ccc(-c5ccc(Cl)cc5)o4)=NOC3c3ccncc3)cc2)CC1 (stereo not drawn) | 
8 | N#Cc1ccc(-c2ccc(C3=NOC(c4ccccc4-c4cncnc4)N3c3ccc(N4CCNCC4)cc3)o2)cc1 (stereo in doubt; 33) | EC50 [2]: 1200 nM
60 | Clc1ccc(-c2ccc(C3=NOC(c4ccncn4)N3c3ccc(N4CCNCC4)cc3)o2)cc1 (stereo not drawn) | 
5300 | N#Cc1cccc(-c2ccc(C3=NOC(c4ccccc4-c4cncnc4)N3c3ccc(N4CCNCC4)cc3)o2)c1 (stereo not drawn) | 
30 | Clc1ccc(-c2ccc(C3=NOC(c4ccncc4)N3c3ccc(N4CCNCC4)cc3)o2)cc1 (stereo not drawn) | EC50 [2]: 2700 nM
3400 | Clc1ccc(-c2ccc(-c3nocc3-c3ccc(N4CCNCC4)cc3)o2)cc1 | 
220 | Fc1cc(-c2ccc(C3=NOC(c4ccccc4-c4cncnc4)N3c3ccc(N4CCNCC4)cc3)o2)ccc1Cl (stereo not drawn) | 
60 | Fc1ccc(C2ON=C(c3ccc(-c4ccc(Cl)cc4)o3)N2c2ccc(N3CCNCC3)cc2)nc1 (stereo not drawn) | EC50 [2]: 3700 nM
790 | c1ccc(C2ON=C(c3ccc(-c4ccncc4)o3)N2c2ccc(N3CCNCC3)cc2)c(-c2cncnc2)c1 (stereo not drawn) | 
3700 | Clc1ccc(-c2ccc(C3ON=C(c4ccccc4)N3c3ccc(N4CCNCC4)cc3)o2)cc1 (stereo not drawn) | 
70 | Clc1ccc(-c2ccc(C3=NOC(c4cnc[nH]4)N3c3ccc(N4CCNCC4)cc3)o2)cc1 (stereo not drawn) | EC50 [2]: 2400 nM
340 | N#Cc1ccc(-c2ccc(C3=NOC(c4ccccc4-c4cncnc4)N3c3ccc(N4CCNCC4)cc3)o2)cc1 (single isomer, unassigned; enantiomer 2) | 
50 | Clc1ccc(-c2ccc(C3=NOC(c4cccnc4)N3c3ccc(N4CCNCC4)cc3)o2)cc1 (stereo not drawn) | 
> 10000 | CNC(=O)c1ccc(-c2ccc(C3=NOC(c4ccccc4-c4cncnc4)N3c3ccc(N4CCNCC4)cc3)o2)cc1 (stereo not drawn) | 
190 | Fc1cc(F)cc(C2ON=C(c3ccc(-c4ccc(Cl)cc4)o3)N2c2ccc(N3CCNCC3)cc2)c1 (stereo not drawn) | 
310 | COc1ccc(-c2ccc(C3=NOC(c4ccccc4-c4cncnc4)N3c3ccc(N4CCNCC4)cc3)o2)cc1 (stereo not drawn) | 
160 | Fc1ccc(C2ON=C(c3ccc(-c4ccc(Cl)cc4)o3)N2c2ccc(N3CCNCC3)cc2)cc1 (stereo not drawn) | 
 | N#Cc1ccc(-c2ccc(C3=NOC(c4ccccc4-c4cncnc4)N3c3ccc(N4CCNCC4)cc3)o2)cc1 (stereo in doubt; 38) [listing 1 of 2 here] | inhibition [3]: Active
970 | Clc1ccc(-c2ccc(C3=NOC(c4ccccc4-c4cncnc4)N3c3ccc(N4CCNCC4)cc3)o2)cc1Cl (stereo not drawn) | 
30 | Clc1ccc(-c2ccc(C3=NOC(c4ccccn4)N3c3ccc(N4CCNCC4)cc3)o2)cc1 (stereo not drawn) | EC50 [2]: 3000 nM
6200 | O=c1onc(-c2ccc(-c3ccc(Cl)cc3)o2)n1-c1ccc(N2CCNCC2)cc1 | 
6 | N#Cc1ccc(-c2ccc(C3=NOC(c4ccccc4-c4cncnc4)N3c3ccc(N4CCNCC4)cc3)o2)cc1 (stereo in doubt; 38) [listing 2 of 2 here] | hepatocyte CLint [4]: 35 µL/min/1e6 cells; permeability (Caco-2): permeable; EC50 [2]: 170 nM; solubility [5]: 20 µM (≈ 11.1 µg/mL); solubility [6]: 20 µM (≈ 11.1 µg/mL); fraction unbound [7]: 0.035; fraction unbound [8]: 0.031
1400 | Clc1ccc(-c2ccc(C3=NOCCCN3c3ccc(N4CCNCC4)cc3)o2)cc1 | 
100 | Fc1ccc(C2ON=C(c3ccc(-c4ccc(Cl)cc4)o3)N2c2ccc(N3CCNCC3)cc2)c(F)c1 (stereo not drawn) | 
> 10000 | Clc1ccc(-c2ccc(C3=NOC(c4ccncc4)N3Cc3ccc(N4CCNCC4)cc3)o2)cc1 (stereo not drawn) | 
1300 | Clc1cccc(-c2ccc(C3=NOC(c4ccccc4-c4cncnc4)N3c3ccc(N4CCNCC4)cc3)o2)c1 (stereo not drawn) | 
190 | Clc1ccc(-c2ccc(C3=NOC(c4ccncc4)N3c3ccc(C4CCNCC4)cc3)o2)cc1 (stereo not drawn) | 
50 | Fc1ccc(-c2ccc(C3=NOC(c4ccccc4-c4cncnc4)N3c3ccc(N4CCNCC4)cc3)o2)cc1 (stereo not drawn) | EC50 [2]: 760 nM
